One assay has as its target Mu-type opioid receptor (Mus musculus, UniProt P42866). As to the kind of experiment: Displacement of [3H]DAMGO from mu opioid receptor in mouse cerebellum. In general terms: Loss of bound radioactivity is the signal in a displacement assay; it reports binding, not function.
For assay [1], the target named is Delta-type opioid receptor (Mus musculus, UniProt P32300). The assay is described as follows: Displacement of [3H]DPDPE from delta opioid receptor in mouse cerebellum.
Chain of Delta-type opioid receptor (P32300 whole entry): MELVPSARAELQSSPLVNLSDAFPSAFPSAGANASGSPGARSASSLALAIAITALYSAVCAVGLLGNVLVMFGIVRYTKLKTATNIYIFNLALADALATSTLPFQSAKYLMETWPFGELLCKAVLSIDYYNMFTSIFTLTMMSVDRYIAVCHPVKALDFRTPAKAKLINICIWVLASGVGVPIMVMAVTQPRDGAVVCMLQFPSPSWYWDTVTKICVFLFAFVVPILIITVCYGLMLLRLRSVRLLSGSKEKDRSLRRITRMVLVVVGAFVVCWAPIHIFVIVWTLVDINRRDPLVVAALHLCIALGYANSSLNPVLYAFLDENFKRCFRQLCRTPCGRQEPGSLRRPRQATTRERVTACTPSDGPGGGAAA
Assay [2] addresses Kappa-type opioid receptor (Cavia porcellus, UniProt P41144). As to the kind of experiment: Displacement of [3H]U-69,593 from kappa opioid receptor in guinea pig cerebellum.
Assay [3] can be described thus: Selectivity ratio of Ki for mu opioid receptor in mouse cerebellum to Ki for kappa opioid receptor in guinea pig cerebellum. Type of assay: tissue-based.
Assay [4] is described as follows: Selectivity ratio of Ki for delta opioid receptor in mouse cerebellum to Ki for kappa opioid receptor in guinea pig cerebellum. Type of assay: tissue-based.

Some results are limits rather than exact numbers.

Chain of Mu-type opioid receptor (P42866 whole entry): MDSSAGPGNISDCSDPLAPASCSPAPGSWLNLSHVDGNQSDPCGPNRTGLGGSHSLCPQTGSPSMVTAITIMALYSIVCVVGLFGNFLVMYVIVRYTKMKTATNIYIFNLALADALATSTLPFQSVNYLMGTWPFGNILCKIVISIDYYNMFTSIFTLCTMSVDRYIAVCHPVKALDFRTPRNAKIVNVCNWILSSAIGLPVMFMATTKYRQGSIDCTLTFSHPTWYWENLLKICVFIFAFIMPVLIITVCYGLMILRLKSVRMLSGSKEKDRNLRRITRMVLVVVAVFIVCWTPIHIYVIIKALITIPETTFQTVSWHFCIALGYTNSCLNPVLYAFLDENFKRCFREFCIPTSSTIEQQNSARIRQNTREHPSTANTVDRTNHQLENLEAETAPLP
Chain of Kappa-type opioid receptor (P41144 whole entry): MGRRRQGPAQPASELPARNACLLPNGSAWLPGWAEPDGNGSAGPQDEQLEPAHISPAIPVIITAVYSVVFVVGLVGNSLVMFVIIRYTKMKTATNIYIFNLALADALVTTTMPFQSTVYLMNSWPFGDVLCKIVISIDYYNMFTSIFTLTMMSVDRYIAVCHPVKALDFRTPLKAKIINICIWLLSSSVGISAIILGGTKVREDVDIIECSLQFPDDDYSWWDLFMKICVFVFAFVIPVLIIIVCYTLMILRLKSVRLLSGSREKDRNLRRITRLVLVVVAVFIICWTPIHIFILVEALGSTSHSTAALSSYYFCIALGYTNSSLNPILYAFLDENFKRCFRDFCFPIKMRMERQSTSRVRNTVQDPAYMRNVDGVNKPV

One may read the Ki as the equilibrium dissociation constant of an inhibitor or competing ligand from its target. High values mean weaker binding, low ones tighter binding. As to `CN(C(=O)/C=C/c1ccoc1)[C@@H]1CC[C@@]2(O)[C@H]3CC4=C(CCCC4)[C@@]2(CCN3CC2CC2)C1`, the results for the inhibition constant Ki (at Mu-type opioid receptor; in assay [1]; in assay [2]) were 83.2 nM, 308 nM and 5.64 nM, respectively. The Ratio Ki in assay [3] came to 14.7; in assay [4], 54.5.

On to `CN[C@@H]1CC[C@@]2(O)[C@H]3CC4=C(CCCC4)[C@@]2(CCN3CC2CC2)C1`, for which the Ki on Mu-type opioid receptor was over 1000 nM; in assay [1], over 1000 nM; in assay [2] it was 352 nM.

`CN(C(=O)/C=C/c1ccoc1)[C@@H]1CC[C@H]2[C@H]3Cc4ccc(O)c5c4[C@@]2(CCN3CC2CC2)[C@H]1O5`: the results for the inhibition constant (Ki) (at Mu-type opioid receptor; in assay [1]; in assay [2]) were 0.51 nM, 8.82 nM and 0.35 nM, respectively. In addition, the values for the Ratio Ki in assay [3] and in assay [4] were 1.47 and 25.3, respectively.

For the compound `CN(C(=O)/C=C/c1ccoc1)[C@@H]1CC[C@@]2(O)[C@H]3Cc4cccc5c4[C@@]2(CCN3CC2CC2)[C@H]1O5`, the values for the inhibition constant (Ki) (at Mu-type opioid receptor; in assay [1]; in assay [2]) were 169 nM, over 1000 nM and 2.82 nM, respectively. In addition, the Ratio Ki in assay [3] came out at 59.8.

Take `CN(C(=O)/C=C/c1ccoc1)[C@@H]1CC[C@H]2[C@H]3CC4=C(CCCC4)[C@@]2(CCN3CC2CC2)C1`: the inhibition constant Ki stood at 24.6 nM on Mu-type opioid receptor, 204 nM in assay [1] and 12.7 nM in assay [2]. Further, the Ratio Ki in assay [3] turned out to be 1.94; in assay [4] it was 16.1.

Take `CN(C(=O)/C=C/c1ccoc1)[C@@H]1CC[C@@]2(O)[C@H]3Cc4ccc(O)cc4[C@@]2(CCN3CC2CC2)C1`: the values for the Ki (at Mu-type opioid receptor; in assay [1]; in assay [2]) were 0.43 nM, 2.09 nM and 0.18 nM, respectively. Further, the Ratio Ki amounted to 2.42 in assay [3] and 11.8 in assay [4].

As to `CN(C(=O)/C=C/c1ccoc1)[C@@H]1CC[C@H]2CN(CC3CC3)CC[C@@H]2C1`, the Ki is over 100000 nM on Mu-type opioid receptor, over 100000 nM in assay [1] and 19100 nM in assay [2].

With `O=C1CC[C@@]2(O)[C@H]3CC4=C(CCCC4)[C@@]2(CCN3CC2CC2)C1`, the Ki turned out to be 391 nM at Mu-type opioid receptor, 939 nM in assay [1] and 787 nM in assay [2]. In addition, the results for the Ratio Ki in assay [3] and in assay [4] were 0.5 and 1.19, respectively.

The values above are taken from ChEMBL document CHEMBL2057184, “Essential structure of opioid κ receptor agonist nalfurafine for binding to the κ receptor 2: synthesis of decahydro(iminoethano)phenanthrene derivatives and their pharmacologies” (Bioorg Med Chem Lett, 2012).
